Columns and labels:
Format in all cases: cell-based
[1] = target: T1, NKX2-5 transcriptional activity (Mus musculus, UniProt P42582); assay: NKX2-5 luciferase reporter assay (3xNKE reporter, COS-1 cells); settings: COS-1, luciferase reporter activity relative to control; for activity at 3 µM: read-out: NKX.3µM; for activity at 10 µM: read-out: NKX.10µM
T1 construct: expressed in transfected cells; host or cells: COS-1

COS-1 cells [2] = assay: MTT assay (cell viability); settings: cell viability
Description: (§1) To investigate the toxicity as a potential cause of decreased or increased activity in luciferase reporter gene assays, we tested a set of 40 active compounds in the COS-1 cell line used for the luciferase assays. Concentration-dependent toxic effects were investigated using the lactate dehydrogenase (LDH) assay to detect necrosis and the 3-(4,5-dimethylthiazol-2-yl)-2,5-diphenyltetrazolium bromide (MTT) assay as a measure of cell viability. […] For the data analysis, compounds were classified as toxic (Figures 5 and 7) if they induced a >10% decrease in cell viability in the MTT assay at the concentration of 10 μM. The most toxic compounds (35a, 35d, 54, 58, and 63–65) in the MTT assay all contained a phenyl substituent in the southern part ring, while the ortho-nitrophenyl-derivative 39g and the phenyl-substituted thiophene 47t were nontoxic. Higher flexibility in the central parts of the ethers (35a, 35d) and N-acylated amines (58, 64) might contribute to their toxicity, because less rigid compounds are more likely to have affinity to various biological targets. Such interactions can cause toxicity. To confirm and validate the results from MTT assays, we tested three nontoxic (2, 47s, and 72) and three toxic (1, 35a, and 58) compounds in a cell viability assay measuring intracellular ATP content.
(§2) Figure 5 Effects of selected compounds on COS-1 cell viability. (A) Compound-induced necrosis was quantified with the LDH assay after a 24-h compound exposure. The data are presented as cytotoxicity percentage (% of maximal LDH release). (B) Cell viability was analyzed with the MTT assay after a 24-h compound exposure. (A,B) The data are means from 2–3 independent experiments with 3 replicate wells in each and are presented as % of control (vehicle-treated cells). The compounds have been grouped on the basis of the structure of the central part: a, amide; b, ether; c, N-acylated amine; d, amine; and e, imine. (C) The effects of selected compounds on cell viability as determined by ATP content after a 24-h compound exposure. The data are mean + SEM from three independent experiments and are presented as % of vehicle-treated cells.
(§3) For toxicity screening, COS-1 cells were cultured in DMEM (Sigma-Aldrich, Steinheim, Germany) supplemented with 10% fetal bovine serum, 100 U/mL penicillin, and 100 μg/mL streptomycin (all from Gibco, Thermo Scientific) at 37 °C with 5% CO2. The cells were plated on 96-well plates at 10 000 cells/well and exposed to test compounds at a concentration range of 1–30 μM on the following day. After a 24-h compound treatment, lactate dehydrogenase (LDH) and 3-(4,5-dimethylthiazol-2-yl)-2,5-diphenyltetrazolium bromide (MTT) assays were carried out as described previously.[48] Briefly, LDH activity was determined from 50 μL samples of cell culture medium, to which 50 μL of substrate solution [1.3 mM β-nicotinamide-adenine dinucleotide, 660 μM iodonitrotetrazolium, 54 mM L(+)-lactic acid, and 280 μM phenazine methosulfate in 0.2 M Tris-HCl, pH 8.2, all from Sigma-Aldrich] was added, and the plate was incubated for 30 min at room temperature. The reaction was stopped with acetic acid (final concentration 333 mM), and absorbance was measured at 490 nm. The absorbance values of the samples were normalized to maximal LDH release and spontaneous LDH release determined on the same plate. Mitochondrial metabolic activity was quantified by incubating the cells with 0.5 mg/mL MTT (from Sigma-Aldrich) for 2 h at 37 °C with 5% CO2, whereafter culture medium was removed and formazan crystals were dissolved in DMSO. The absorbance was measured at 550 nm, and absorbance at 650 nm was subtracted as background.

[3] = target: T2, GATA4–NKX2-5 transcriptional synergy (Mus musculus, UniProt P42582+Q08369); assay: GATA4–NKX2-5 transcriptional synergy luciferase reporter assay (3xNKE reporter, COS-1 cells); settings: COS-1, luciferase reporter activity relative to control
T2 construct: expressed in transfected cells; host or cells: COS-1

COS-1 cells [4] = assay: LDH assay (necrosis)
Description: as §1, §2, §3

[5] = target: T3, GATA4 transcriptional activity (Mus musculus, UniProt Q08369); assay: GATA4 luciferase reporter assay (tandem GATA-site reporter, COS-1 cells); settings: for activity at 3 µM / activity at 10 µM: COS-1, luciferase reporter activity relative to control
T3 construct: expressed in transfected cells; host or cells: COS-1
T3 sequence (Q08369 whole entry): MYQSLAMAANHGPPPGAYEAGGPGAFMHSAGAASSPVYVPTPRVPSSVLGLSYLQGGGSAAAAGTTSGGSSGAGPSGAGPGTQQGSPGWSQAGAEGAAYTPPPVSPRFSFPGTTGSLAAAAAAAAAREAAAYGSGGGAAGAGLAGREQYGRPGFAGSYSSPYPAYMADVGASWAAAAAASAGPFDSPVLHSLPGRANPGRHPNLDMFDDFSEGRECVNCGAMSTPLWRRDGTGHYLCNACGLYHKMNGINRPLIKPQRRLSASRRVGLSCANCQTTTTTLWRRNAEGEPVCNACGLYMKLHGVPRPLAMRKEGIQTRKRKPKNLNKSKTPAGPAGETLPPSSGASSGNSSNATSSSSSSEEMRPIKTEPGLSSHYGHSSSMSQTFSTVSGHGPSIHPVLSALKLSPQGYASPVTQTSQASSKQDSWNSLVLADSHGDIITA

T2 sequence (Q08369 whole entry): as above
T2 sequence (P42582 whole entry): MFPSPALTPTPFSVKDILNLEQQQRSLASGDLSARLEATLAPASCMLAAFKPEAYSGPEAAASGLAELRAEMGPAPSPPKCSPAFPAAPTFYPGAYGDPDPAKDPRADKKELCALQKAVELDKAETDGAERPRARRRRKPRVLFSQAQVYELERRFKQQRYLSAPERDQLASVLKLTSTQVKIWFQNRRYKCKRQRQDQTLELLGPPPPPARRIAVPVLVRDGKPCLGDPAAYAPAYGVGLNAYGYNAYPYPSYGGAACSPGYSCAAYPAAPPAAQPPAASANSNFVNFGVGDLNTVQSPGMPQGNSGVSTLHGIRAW
T1 sequence (P42582 whole entry): as above

| Structure (SMILES) | activity at 3 µM [1] | activity at 10 µM [1] | MTT.1µM (COS-1 cells [2]) | MTT.3µM (COS-1 cells [2]) | MTT.10µM (COS-1 cells [2]) | MTT.30µM (COS-1 cells [2]) | activity at 3 µM [3] | activity at 10 µM [3] | LDH.1µM (COS-1 cells [4]) | LDH.3µM (COS-1 cells [4]) | LDH.10µM (COS-1 cells [4]) | LDH.30µM (COS-1 cells [4]) | activity at 3 µM [5] | activity at 10 µM [5] | GATA4 (% of control) Mean ± SD ([5]; 10 μM, COS-1 cells, 24 h) |
| --- | --- | --- | --- | --- | --- | --- | --- | --- | --- | --- | --- | --- | --- | --- | --- |
| CCN(CC)c1ccc(NCc2c[nH]nc2-c2cc(F)cc(F)c2)cc1 [SI79] | 88.7% | 71.4% | 101.61 | 103.16 | 104.94 | 103.16 | 98.9% | 92.2% | 2.87 | 1.38 | -0.15 | -0.35 | 92.7% | 78.5% |  |
| CCN(CC)c1ccc(NC(=O)c2c(-c3ccsc3)noc2C)cc1 [Compound 39m] | 122% |  | 102.49 | 98.85 | 88.28 | 82.62 | 87.2% |  | -0.35 | 0.79 | -1.72 | -1.23 | 103% |  |  |
| CCN(CC)c1ccc(NC(=O)c2ccnn2-c2ccccc2)cc1 [SI88] | 75.3% | 60.7% | 105.89 | 89.83 | 83.67 | 88.35 | 62.4% | 52.7% | 2.08 | -0.13 | 0.07 | -1.27 | 92.3% | 61.8% |  |
| CCN(c1ccc(NC(=O)c2c(C)noc2-c2ccccc2)cc1)C(C)C [Compound 63] | 69.7% |  | 99.16 | 82.83 | 75.83 | 61.58 | 41.6% |  | 0.04 | -1.53 | -2.08 | 0.01 | 68% |  |  |
| CCCn1nnc(-c2ccccc2)c1C(=O)Nc1ccc(N(CC)CC)cc1 [SI65] | 115% | 91.1% | 101.13 | 112.84 | 109.58 | 105.89 | 104% | 96.1% | 2.51 | 1.17 | 1.55 | 2.48 | 113% | 97.4% |  |
| CC[N+](O)(CC)c1ccc(NC(=O)c2c(-c3ccccc3)noc2C)cc1 [SI4] | 118% | 99.9% | 104.81 | 107.68 | 104.23 | 95.62 | 101% | 93.6% | 3.36 | 1.95 | 1 | -1.21 | 87.2% | 86.9% |  |
| CCN(CC)c1ccc(/C=N/c2c(-c3ccccc3)noc2C)c(O)c1 [SI44] | 99.9% | 53.9% | 105.22 | 100.5 | 90.69 | 89.22 | 84.8% | 53.2% | 2.83 | 1.4 | -0.96 | 0.36 | 107% | 74.1% |  |
| CCC(OC)c1ccc(OCc2c(-c3ccccc3)noc2C)cc1 (racemic) [Compound 34e, (rac)-4-[[4-(1-Methoxypropyl)phenoxy]methyl]-5-methyl-3-phenylisoxazole] | 104% |  | 102.33 | 95.44 | 86.07 | 79.5 | 79.7% |  | 1.31 | -0.22 | -0.78 | 0.55 | 101% |  |  |
| CCN(CC)c1ccc(CNc2c(-c3ccccc3)noc2C)cc1 [Compound 33, N-[4-(Diethylamino)benzyl]-5-methyl-3-phenylisoxazol-4-amine] | 99% |  | 111.17 | 102.56 | 104.2 | 96.47 | 97.5% |  | 2.57 | 2.98 | 2.01 | 0.31 | 114% |  |  |
| Cc1onc(-c2ccccc2)c1C(=O)Nc1ccc(OCc2ccccc2)cc1 [SI8] | 84.9% | 72.2% | 105.45 | 102.65 | 100.93 | 59.22 | 86.4% | 71.9% | -0.14 | 2.05 | -0.31 | 1.97 | 104% | 83.8% |  |
| CCN(CC)c1ccc(NC(=O)c2cnc3ncccn23)cc1 [Compound 47aa] | 112% | 118% | 101.8 | 103.86 | 99.76 | 95.63 | 101% | 144% | 1.59 | 1 | 1.6 | -0.51 | 108% | 132% | 130 % of control |
| CCN(CC)c1ccc(NC(=O)c2c(C)noc2-c2cc(C)on2)cc1 [Compound 3] | 106% |  | 105.34 | 105.48 | 100.7 | 92.68 | 75.5% |  | 0.35 | -0.67 | -1.59 | -1.83 | 96.7% | 102% |  |
| Cc1onc(-c2ccccc2)c1C(=O)Nc1ccc(C#C[Si](C)(C)C)cc1 [Compound 4j, 5-Methyl-3-phenyl-N-[4-[(trimethylsilyl)ethynyl]phenyl]isoxazole-4-carboxamide] | 98.2% |  | 104.97 | 104.95 | 102.07 |  | 67.8% |  | 1.09 | 1.13 | 0.61 | 1.5 | 110% |  |  |
| CCN(CC)c1ccc(NC(=O)c2csc([N+](=O)[O-])c2)cc1 [Compound 47u] | 37.8% |  | 105.56 | 102.26 | 97.2 | 88.36 | 32.3% | 24.5% | 7.78 | 6.19 | 2.98 | 1.83 | 28.7% |  |  |
| CCN(CC)c1ccc(NC(=O)c2c(-c3ccncc3)noc2C)cc1 [Compound 39c] | 100% |  | 105.77 | 106.28 | 90.58 | 90.91 | 81.1% |  | 0.58 | 0.49 | -0.99 | -0.68 | 94% |  |  |
